Assay results reported in patent publication US12077503B2, “Substituted cyclic amides and their use as herbicides” (FMC CORPORATION, priority 2015, dated 2024).

Experiments:
Assay in all cases: Test C preemergence
Type in all cases: in vivo
[1] = tested on: oilseed rape (Brassica napus); conditions: for Plant response rating, Oilseed Rape: scale 0 to 100, 0 no effect, 100 complete control
Method in brief: (§1)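 After treatment with surfactant-containing formulations, either preemergence to seeds in loam-sand soil or postemergence to potted seedlings at 2–18 cm, plants were kept 13–15 d in a greenhouse. Observers then compared them with controls and assigned ratings, 0 signifying no effect and 100 complete control.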

soybean (Glycine max) = conditions: for Plant response rating, Soybean: scale 0 to 100, 0 no effect, 100 complete control
Method in brief: as §1

[2] = tested on: ragweed (common ragweed, Ambrosia elatior); conditions: for Plant response rating, Ragweed: scale 0 to 100, 0 no effect, 100 complete control
Method in brief: as §1

corn (Zea mays) = conditions: for Plant response rating, Corn: scale 0 to 100, 0 no effect, 100 complete control
Method in brief: as §1

[3] = tested on: johnsongrass (Sorghum halepense); conditions: for Plant response rating, Johnsongrass: scale 0 to 100, 0 no effect, 100 complete control
Method in brief: as §1

[4] = tested on: wheat (winter wheat, Triticum aestivum); conditions: for Plant response rating, Wheat: scale 0 to 100, 0 no effect, 100 complete control
Method in brief: as §1

[5] = tested on: morningglory (Ipomoea coccinea); conditions: for Plant response rating, Morningglory: scale 0 to 100, 0 no effect, 100 complete control
Method in brief: as §1

[6] = tested on: crabgrass, large (large crabgrass, Digitaria sanguinalis); conditions: for Plant response rating, Crabgrass, Large: scale 0 to 100, 0 no effect, 100 complete control
Method in brief: as §1

[7] = tested on: lambsquarters (Chenopodium album); conditions: for Plant response rating, Lambsquarters: scale 0 to 100, 0 no effect, 100 complete control
Method in brief: as §1

[8] = tested on: Galium (catchweed bedstraw, Galium aparine); conditions: for Plant response rating, Galium: scale 0 to 100, 0 no effect, 100 complete control
Method in brief: as §1

[9] = tested on: barnyardgrass (Echinochloa crus-galli); conditions: for Plant response rating, Barnyardgrass: scale 0 to 100, 0 no effect, 100 complete control
Method in brief: as §1

[10] = tested on: nutsedge, yellow (yellow nutsedge, Cyperus esculentus); conditions: for Plant response rating, Nutsedge, Yellow: scale 0 to 100, 0 no effect, 100 complete control
Method in brief: as §1

[11] = tested on: foxtail, giant (giant foxtail, Setaria faberii); conditions: for Plant response rating, Foxtail, Giant: scale 0 to 100, 0 no effect, 100 complete control
Method in brief: as §1

[12] = tested on: ryegrass, Italian (Italian ryegrass, Lolium multiflorum); conditions: for Plant response rating, Ryegrass, Italian: scale 0 to 100, 0 no effect, 100 complete control
Method in brief: as §1

[13] = tested on: waterhemp (common waterhemp, Amaranthus rudis); conditions: for Plant response rating, Waterhemp: scale 0 to 100, 0 no effect, 100 complete control
Method in brief: as §1

[14] = tested on: pigweed (Amaranthus retroflexus); conditions: for Plant response rating, Pigweed: scale 0 to 100, 0 no effect, 100 complete control
Method in brief: as §1

[15] = tested on: velvetleaf (Abutilon theophrasti); conditions: for Plant response rating, Velvetleaf: scale 0 to 100, 0 no effect, 100 complete control
Method in brief: as §1

[16] = 31 g ai/ha, 0 is no effect, 100 is complete control

## O=C1NCC(c2cc(F)cc(Cl)c2)C1C(=O)Nc1cccc(F)c1F (centres unmarked) [Compound 492]
[1]; [16]
  Plant response rating (scale of 0 to 100), Oilseed Rape: 0
[1]; 62 g ai/ha
  Plant response rating, Oilseed Rape: 50
[1]; 125 g ai/ha
  Plant response rating, Oilseed Rape: 85
[1]; 250 g ai/ha
  Plant response rating, Oilseed Rape: 85
Soybean (Glycine max); [16]
  Plant response rating (scale of 0 to 100), Soybean: 50
Soybean (Glycine max); 62 g ai/ha
  Plant response rating, Soybean: 0
Soybean (Glycine max); 125 g ai/ha
  Plant response rating, Soybean: 40
Soybean (Glycine max); 250 g ai/ha
  Plant response rating, Soybean: 0
[2]; [16]
  Plant response rating (scale of 0 to 100), Ragweed: 0
[2]; 62 g ai/ha
  Plant response rating, Ragweed: 10
[2]; 125 g ai/ha
  Plant response rating, Ragweed: 35
[2]; 250 g ai/ha
  Plant response rating, Ragweed: 45
Corn (Zea mays); [16]
  Plant response rating (scale of 0 to 100), Corn: 0
Corn (Zea mays); 62 g ai/ha
  Plant response rating, Corn: 10
Corn (Zea mays); 125 g ai/ha
  Plant response rating, Corn: 55
Corn (Zea mays); 250 g ai/ha
  Plant response rating, Corn: 85
[3]; [16]
  Plant response rating (scale of 0 to 100), Johnsongrass: 20
[3]; 62 g ai/ha
  Plant response rating, Johnsongrass: 55
[3]; 125 g ai/ha
  Plant response rating, Johnsongrass: 80
[3]; 250 g ai/ha
  Plant response rating, Johnsongrass: 90
[4]; [16]
  Plant response rating (scale of 0 to 100), Wheat: 0
[4]; 62 g ai/ha
  Plant response rating, Wheat: 0
[4]; 125 g ai/ha
  Plant response rating, Wheat: 5
[4]; 250 g ai/ha
  Plant response rating, Wheat: 35
[5]; [16]
  Plant response rating (scale of 0 to 100), Morningglory: 0
[5]; 62 g ai/ha
  Plant response rating, Morningglory: 10
[5]; 125 g ai/ha
  Plant response rating, Morningglory: 20
[5]; 250 g ai/ha
  Plant response rating, Morningglory: 45
[6]; [16]
  Plant response rating (scale of 0 to 100), Crabgrass, Large: 90
[6]; 62 g ai/ha
  Plant response rating, Crabgrass, Large: 95
[6]; 125 g ai/ha
  Plant response rating, Crabgrass, Large: 95
[6]; 250 g ai/ha
  Plant response rating, Crabgrass, Large: 95
[7]; [16]
  Plant response rating (scale of 0 to 100), Lambsquarters: 25
[7]; 62 g ai/ha
  Plant response rating, Lambsquarters: 35
[7]; 125 g ai/ha
  Plant response rating, Lambsquarters: 40
[7]; 250 g ai/ha
  Plant response rating, Lambsquarters: 50
[8]; [16]
  Plant response rating (scale of 0 to 100), Galium: 85
[8]; 62 g ai/ha
  Plant response rating, Galium: 0
[8]; 125 g ai/ha
  Plant response rating, Galium: 0
[8]; 250 g ai/ha
  Plant response rating, Galium: 85
[9]; [16]
  Plant response rating (scale of 0 to 100), Barnyardgrass: 80
[9]; 62 g ai/ha
  Plant response rating, Barnyardgrass: 90
[9]; 125 g ai/ha
  Plant response rating, Barnyardgrass: 90
[9]; 250 g ai/ha
  Plant response rating, Barnyardgrass: 95
[10]; [16]
  Plant response rating (scale of 0 to 100), Nutsedge, Yellow: 0
[10]; 62 g ai/ha
  Plant response rating, Nutsedge, Yellow: 0
[10]; 125 g ai/ha
  Plant response rating, Nutsedge, Yellow: 0
[10]; 250 g ai/ha
  Plant response rating, Nutsedge, Yellow: 0
[11]; [16]
  Plant response rating (scale of 0 to 100), Foxtail, Giant: 90
[11]; 62 g ai/ha
  Plant response rating, Foxtail, Giant: 90
[11]; 125 g ai/ha
  Plant response rating, Foxtail, Giant: 90
[11]; 250 g ai/ha
  Plant response rating, Foxtail, Giant: 95
[12]; [16]
  Plant response rating (scale of 0 to 100), Ryegrass, Italian: 0
[12]; 62 g ai/ha
  Plant response rating, Ryegrass, Italian: 5
[12]; 125 g ai/ha
  Plant response rating, Ryegrass, Italian: 25
[12]; 250 g ai/ha
  Plant response rating, Ryegrass, Italian: 20
[13]; [16]
  Plant response rating (scale of 0 to 100), Waterhemp: 0
[13]; 62 g ai/ha
  Plant response rating, Waterhemp: 10
[13]; 125 g ai/ha
  Plant response rating, Waterhemp: 40
[13]; 250 g ai/ha
  Plant response rating, Waterhemp: 65
[14]; [16]
  Plant response rating (scale of 0 to 100), Pigweed: 0
[14]; 62 g ai/ha
  Plant response rating, Pigweed: 25
[14]; 125 g ai/ha
  Plant response rating, Pigweed: 75
[14]; 250 g ai/ha
  Plant response rating, Pigweed: 80
[15]; [16]
  Plant response rating (scale of 0 to 100), Velvetleaf: 0
[15]; 62 g ai/ha
  Plant response rating, Velvetleaf: 0
[15]; 125 g ai/ha
  Plant response rating, Velvetleaf: 5
[15]; 250 g ai/ha
  Plant response rating, Velvetleaf: 5
